# Where two headings read alike, the source gives them in different places. Marks after values point to notes of the source that are not given here.
# Columns and labels:
# [1] = broilers
# [2] = Test in broilers: production parameters, copper methioninate / formate / complex (Example 13); format: in vivo, broilers of the Ross strain; details: for IC (index of conversion) / MDC (mean daily consumption) / MDG (mean daily gain): 25 ppm of copper added to base diet; for LW 21 d (live weight): day 21, 25 ppm of copper added to base diet; for LW 42 d (live weight): day 42, 25 ppm of copper added to base diet
# Protocol: Four experimental treatments were used, comprising the same basic diet supplemented with different sources of copper:
# The dose of copper was calculated taking into account the copper content of the ingredients and the copper requirements in the case of treatments T-0 to T-3.
# (§1) Control of production parameters was effected at 21 and 42 days of age, recording the live weight and the consumption of feed per batch.
# [3] = Test in broilers: production parameters, zinc methioninate / formate / complex (Example 12); format: in vivo, broilers of the Ross strain; details: for IC (index of conversion) / MDC (mean daily consumption) / MDG (mean daily gain): 50 ppm of zinc added to base diet; for effect on production parameters (in words): 50 ppm of zinc, control T-0 = zinc sulfate; for LW 21 d (live weight): day 21, 50 ppm of zinc added to base diet; for LW 42 d (live weight): day 42, 50 ppm of zinc added to base diet
# From the text: Four experimental treatments were used, comprising the same basic diet supplemented with different sources of zinc:
# as §1
# [4] = broilers; for Zinc excreted / Zinc ingested / Bioavailability: 43 to 46 days of age, 50 ppm of zinc added to base diet; for zinc bioavailability (in words): 50 ppm of zinc; for Bioavailability: zinc
# [5] = Test of efficacy in piglets: production parameters, zinc glycinate / formate / complex (Example 14); format: in vivo; details: 21-50 days, 130 ppm of zinc added to base diet
# From the text: The experimental period was 29 days.
# [6] = Zinc concentration in the liver of piglets (Example 11); format: in vivo; details: for Liver zinc / Ratio Zn in liver/Zn in diet: end of 21-day experiment, 220 ppm of zinc added to base diet
# From the text: At the end of the experiment, one male and one female were selected at random from each batch to take a specimen of liver tissue and determine the zinc content.
# [7] = piglets, 220 ppm of zinc added to base diet; for LW 28 d (live weight): day 28; for LW 42 d (live weight): day 42
# Protocol: 300 piglets were used (cross of Large White and Landrace), 50% males and 50% females, weaned at 21 days of age and housed in 30 pens with 10 animals in each (5 males and 5 females).
# Five experimental treatments were used, comprising the same basic diet, to which different sources of zinc are added:
# The zinc dose was calculated taking into account the zinc content of the ingredients of the feed and the maximum permitted dose (250 ppm of zinc in the finished feed) in the case of treatments T-0 to T-2, and the dose with promoter effect (2000 ppm) in the case of treatment T-3.
# The experimental period was 21 days.
# The experimental model was a design of random blocks, with 6 replications per treatment. Each replication comprised a batch of 10 animals.
# (§2) Control of production parameters was effected at the end of the experiment, recording the live weight, the daily growth and the consumption of feed.
# [8] = broilers; remark: listed apart in the source
# Protocol: During the next 4 days, an investigation of the bioavailability of the copper was carried out. After fasting for 20 hours, the live weight per cage was recorded and the experimental feeds were supplied for 2 days, recording the consumption of feed.
# [9] = broilers; for LW 21 d (live weight): day 21; for LW 42 d (live weight): day 42
# [10] = Test of efficacy in piglets: production parameters, copper glycinate / formate / complex (Example 15); format: in vivo; details: 21-42 days, 125 ppm of copper added to base diet
# From the text: as §2
# [11] = piglets, 21-41 days; 150 ppm of zinc added to base diet
# Protocol: 24 piglets were used (Large White*Large White×Landrace), 50% males and 50% females, weaned at 21 days of age and housed in 4 pens with 6 animals in each (3 males and 3 females).
# The zinc dose was calculated taking into account the zinc content of the ingredients and the maximum permitted dose (150 ppm) in all the treatments.
# The experimental period was 20 days.
# as §2
# [12] = broilers, 150 ppm of zinc added to base diet
# From the text: 160 one-day old broilers of the Ross strain were used (without differentiation of sexes), housed in cages in groups of 10 animals.
# Control of production parameters was effected at 21 days of age, recording the live weight and the consumption of feed per batch.
# [13] = 43 to 46 days of age, 25 ppm of copper added to base diet
# [14] = 43 to 46 days of age, 20 ppm of copper added to base diet
# [15] = 0-21 days, 20 ppm of copper added to base diet
# [16] = 0-42 days, 20 ppm of copper added to base diet
# [17] = 21-42 days, 20 ppm of copper added to base diet
# [18] = 20 ppm of copper added to base diet
# [19] = 43 to 46 days of age, 150 ppm of copper added to base diet
# [20] = 0-21 days, 150 ppm of copper added to base diet
# [21] = 0-42 days, 150 ppm of copper added to base diet
# [22] = 21-42 days, 150 ppm of copper added to base diet
# [23] = 150 ppm of copper added to base diet
molecule,measurement,setting,value
copper methioninate,Copper excreted,[1]; [13],29.5^b mg
same,Copper ingested,[1]; [13],69.3^a mg
same,copper bioavailability (in words),[1]; 25 ppm of copper,highest bioavailability
same,Bioavailability,"[1]; copper, 43 to 46 days of age, 25 ppm of copper added to base diet",42.6^b %
same,IC (index of conversion),[2]; 0-21 days,1.36 b
same,MDC (mean daily consumption),[2]; 0-21 days,47.1 g/day
same,MDG (mean daily gain),[2]; 0-21 days,34.7 b g
same,IC (index of conversion),[2]; 0-42 days,1.86 b
same,MDC (mean daily consumption),[2]; 0-42 days,100.5 g/day
same,MDG (mean daily gain),[2]; 0-42 days,54.0 b g
same,IC (index of conversion),[2]; 21-42 days,2.08 b
same,MDC (mean daily consumption),[2]; 21-42 days,154.0 g/day
same,MDG (mean daily gain),[2]; 21-42 days,73.8 b g
same,effect on production parameters (in words),"[2]; 25 ppm of copper, control T-0 = copper sulfate",same effect
same,LW 21 d (live weight),[2],750 b g
same,LW 42 d (live weight),[2],2300 b g
zinc methioninate,IC (index of conversion),[3]; 0-21 days,1.35 b
same,MDC (mean daily consumption),[3]; 0-21 days,48.1 g/day
same,MDG (mean daily gain),[3]; 0-21 days,35.7 b g
same,IC (index of conversion),[3]; 0-42 days,1.82 b
same,MDC (mean daily consumption),[3]; 0-42 days,101.7 g/day
same,MDG (mean daily gain),[3]; 0-42 days,55.7 b g
same,IC (index of conversion),[3]; 21-42 days,2.05 b
same,MDC (mean daily consumption),[3]; 21-42 days,155.2 g/day
same,MDG (mean daily gain),[3]; 21-42 days,75.7 b g
same,effect on production parameters (in words),[3],same effect
same,LW 21 d (live weight),[3],750 b g
same,LW 42 d (live weight),[3],2340 b g
same,Zinc excreted,[4],7.35^b mg
same,Zinc ingested,[4],12.6^a mg
same,zinc bioavailability (in words),[4],highest bioavailability
same,Bioavailability,[4],42.6^b %
NCC(=O)[O-].NCC(=O)[O-].[Zn+2] [zinc glycinate],GLW 21-50 d (gain in live weight),[5],12.75 b kg
same,IC (index of conversion),[5],1.68 b
same,MDC (mean daily consumption),[5],741.3 g/day
same,MDG (mean daily gain),[5],439.6 b g
O=S(=O)([O-])[O-].[Zn+2] [zinc sulfate],MDC (mean daily consumption),[3]; 0-21 days,47.3 g/day
same,MDG (mean daily gain),[3]; 0-21 days,33.6 a g
same,MDC (mean daily consumption),[3]; 0-42 days,101.7 g/day
same,MDG (mean daily gain),[3]; 0-42 days,53.5 a g
same,MDC (mean daily consumption),[3]; 21-42 days,156.3 g/day
same,MDG (mean daily gain),[3]; 21-42 days,73.6 a g
same,LW 21 d (live weight),[3],705 a g
same,LW 42 d (live weight),[3],2250 a g
same,Zinc excreted,[4],8.34^a mg
same,Zinc ingested,[4],12.4^a mg
[O]=[Zn] [zinc oxide],GLW 21-50 d (gain in live weight),[5],11.40 a kg
same,IC (index of conversion),[5],2.02 a
same,MDC (mean daily consumption),[5],795.3 g/day
same,MDG (mean daily gain),[5],393.1 a g
same,liver zinc concentration (in words),[6]; dose of 220 ppm,lowest
same,Liver zinc,[6],47.63a μg/g
same,Ratio Zn in liver/Zn in diet,[6],19.8ab
same,IC (index of conversion),[7]; 21-28 days,1.32 a
same,MDC (mean daily consumption),[7]; 21-28 days,321.7 g/day
same,MDG (mean daily gain),[7]; 21-28 days,244.5 A g
same,IC (index of conversion),[7]; 21-42 days,1.67 a
same,MDC (mean daily consumption),[7]; 21-42 days,795.3 g/day
same,MDG (mean daily gain),[7]; 21-42 days,475.3 a g
same,LW 28 d (live weight),[7],8.41 A kg
same,LW 42 d (live weight),[7],13.11 a kg
Zinc butyrate,ratio of zinc in the liver to zinc in the diet (in words),[6]; 220 ppm of zinc,highest ratio
same,Liver zinc,[6],56.3a μg/g
same,Ratio Zn in liver/Zn in diet,[6],22.3bc
same,IC (index of conversion),[7]; 21-28 days,1.09 b
same,MDC (mean daily consumption),[7]; 21-28 days,286.3 g/day
same,MDG (mean daily gain),[7]; 21-28 days,262.9 ab g
same,IC (index of conversion),[7]; 21-42 days,1.45 b
same,MDC (mean daily consumption),[7]; 21-42 days,741.3 g/day
same,MDG (mean daily gain),[7]; 21-42 days,509.6 b g
same,LW 28 d (live weight),[7],8.99 B kg
same,LW 42 d (live weight),[7],14.15 b kg
Copper butyrate,Copper excreted,[8]; [14],2.99^a mg
same,Copper ingested,[8]; [14],7.3^a mg
same,copper bioavailability (in words),[8]; 20 ppm of copper,highest bioavailability
same,Bioavailability,"[8]; copper, 43 to 46 days of age, 20 ppm of copper added to base diet",59.09^b %
same,IC (index of conversion),[9]; [15],1.35 b
same,MDC (mean daily consumption),[9]; [15],48.9 g/day
same,MDG (mean daily gain),[9]; [15],36.2 b g
same,IC (index of conversion),[9]; [16],1.76 b
same,MDC (mean daily consumption),[9]; [16],97.2 g/day
same,MDG (mean daily gain),[9]; [16],55.1 b g
same,IC (index of conversion),[9]; [17],1.94 b
same,MDC (mean daily consumption),[9]; [17],147.2 g/day
same,MDG (mean daily gain),[9]; [17],75.9 b g
same,LW 21 d (live weight),[9]; [18],763 b g
same,LW 42 d (live weight),[9]; [18],2358 b g
NCC(=O)[O-].NCC(=O)[O-].[Cu+2] [copper glycinate],GLW 21-42 d (gain in live weight),[10],7.25 b kg
same,IC (index of conversion),[10],1.91 b
same,MDC (mean daily consumption),[10],660.5 g/day
same,MDG (mean daily gain),[10],345.0 b g
"O=C[O-].O=C[O-].[Zn+2] [zinc formate, Zinc formate]",GLW 21-50 d (gain in live weight),[5],12.50 b kg
same,MDC (mean daily consumption),[5],752.3 g/day
same,MDG (mean daily gain),[5],431.0 b g
same,GLW 21-41 d (gain in live weight),[11],8.00 b kg
same,MDC (mean daily consumption),[11],655.0 g/day
same,MDG (mean daily gain),[11],400.0 b g
same,MDC (mean daily consumption),[12]; 0-21 days,47.5 g/day
same,MDG (mean daily gain),[12]; 0-21 days,37.6 b g
same,LW 21 d (live weight),[12]; day 21,790 b g
same,Liver zinc,[6],59.21a μg/g
same,MDC (mean daily consumption),[3]; 0-21 days,48.3 g/day
same,MDG (mean daily gain),[3]; 0-21 days,35.2 b g
same,MDC (mean daily consumption),[3]; 0-42 days,100.4 g/day
same,MDG (mean daily gain),[3]; 0-42 days,55.0 b g
same,MDC (mean daily consumption),[3]; 21-42 days,152.5 g/day
same,MDG (mean daily gain),[3]; 21-42 days,74.8 b g
same,effect on production parameters (in words),[3],same effect
same,LW 21 d (live weight),[3],740 b g
same,LW 42 d (live weight),[3],2310 b g
same,MDC (mean daily consumption),[7]; 21-28 days,312.3 g/day
same,MDG (mean daily gain),[7]; 21-28 days,268.6 B g
same,MDC (mean daily consumption),[7]; 21-42 days,752.3 g/day
same,MDG (mean daily gain),[7]; 21-42 days,512.6 b g
same,LW 28 d (live weight),[7],8.76 ab kg
same,LW 42 d (live weight),[7],14.30 b kg
same,Zinc excreted,[4],7.20^b mg
same,Zinc ingested,[4],13.3^a mg
same,zinc bioavailability (in words),[4],highest bioavailability
same,Bioavailability,[4],45.8^b %
O=S(=O)([O-])[O-].[Cu+2] [copper sulfate],Copper excreted,[8]; [14],4.08^a mg
same,Copper ingested,[8]; [14],7.3^a mg
same,Copper excreted,[8]; [19],397.3^b mg
same,Copper ingested,[8]; [19],652.4^b mg
same,Copper excreted,[1]; [13],20.4^a mg
same,Copper ingested,[1]; [13],67.98^a mg
same,MDC (mean daily consumption),[9]; [15],48.9 g/day
same,MDG (mean daily gain),[9]; [15],34.2 a g
same,MDC (mean daily consumption),[9]; [20],49.7 g/day
same,MDG (mean daily gain),[9]; [20],35.9 b g
same,MDC (mean daily consumption),[9]; [16],98.2 g/day
same,MDG (mean daily gain),[9]; [16],50.6 a g
same,MDC (mean daily consumption),[9]; [21],99.5 g/day
same,MDG (mean daily gain),[9]; [21],55.2 b g
same,MDC (mean daily consumption),[9]; [17],149.3 g/day
same,MDG (mean daily gain),[9]; [17],69.2 a g
same,MDC (mean daily consumption),[9]; [22],154.2 g/day
same,MDG (mean daily gain),[9]; [22],76.7 b g
same,LW 21 d (live weight),[9]; [18],716 a g
same,LW 21 d (live weight),[9]; [23],756 b g
same,LW 42 d (live weight),[9]; [18],2172 a g
same,LW 42 d (live weight),[9]; [23],2362 b g
same,MDC (mean daily consumption),[2]; 0-21 days,45.3 g/day
same,MDG (mean daily gain),[2]; 0-21 days,31.6 a g
same,MDC (mean daily consumption),[2]; 0-42 days,102.7 g/day
same,MDG (mean daily gain),[2]; 0-42 days,51.6 a g
same,MDC (mean daily consumption),[2]; 21-42 days,160.1 g/day
same,MDG (mean daily gain),[2]; 21-42 days,71.6 a g
same,LW 21 d (live weight),[2],695 a g
same,LW 42 d (live weight),[2],2200 a g
same,GLW 21-42 d (gain in live weight),[10],6.5 a kg
same,MDC (mean daily consumption),[10],650.5 g/day
same,MDG (mean daily gain),[10],309.5 a g
